Results on 15 compounds are retold here after PubChem BioAssay (NCI).

Each structure is given as a SMILES string.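 Method: 48-hour compound exposure of cells in 96-well plates, five concentrations, linear interpolation of endpoints. Abbreviation: GI50, concentration required for 50% inhibition of growth. TGI marks complete inhibition of growth.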

Some test systems named below: LOX IMVI melanoma; OVCAR-5 ovarian; RXF 393 renal; HOP-92 NSCLC; M14 melanoma; KM12 colon; CCRF-CEM leukemia; SR leukemia; MDA-MB-231 breast; MCF7 breast.
What all share (test): NCI anticancer screen, dose series, 48 h

For `O=C1c2ccccc2CC1C1(O)C(=O)Nc2ccccc21` (stereo not given), the TGI with LOX IMVI melanoma, with OVCAR-5 ovarian, in the experiment with RXF 393 renal, in the experiment with HOP-92 NSCLC and in the experiment with M14 melanoma was more than 100 µM throughout.
As for `N#Cc1cc([N+](=O)[O-])ccc1NC(=O)/C(=N/N)C(C(=O)c1ccc(Cl)c(Cl)c1)C1OC(=O)c2ccccc21` (stereo not given), the TGI with LOX IMVI melanoma, with OVCAR-5 ovarian, with RXF 393 renal, in the experiment on KM12 colon, in the experiment with CCRF-CEM leukemia and in the experiment on SR leukemia was more than 100 µM throughout. In the experiment on HOP-92 NSCLC, this compound gave a TGI of 60 µM.
For `COc1cc(C)c(O)c(C(=O)O)c1`, the TGI in the experiment on LOX IMVI melanoma, with OVCAR-5 ovarian, with RXF 393 renal, with KM12 colon, in the experiment on CCRF-CEM leukemia and in the experiment with SR leukemia was more than 100 µM throughout. The TGI with M14 melanoma is more than 100 µM.
For the compound `O=C(CN(/C=C/C(=O)C(F)(F)F)c1ccccc1)c1ccc(Cl)c(Cl)c1`, the GI50 is 12.8 µM with MDA-MB-231 breast; 16 µM in the experiment with LOX IMVI melanoma; 17 µM in the experiment with OVCAR-5 ovarian; 17.1 µM in the experiment with RXF 393 renal; 5.2 µM with MCF7 breast; 12.3 µM with KM12 colon. In addition, the GI50 was 11.2 µM in the experiment with CCRF-CEM leukemia and 17.7 µM in the experiment with HOP-92 NSCLC. Also, the TGI is 26.3 µM in the experiment with MDA-MB-231 breast; 31.8 µM in the experiment with LOX IMVI melanoma; 33.9 µM in the experiment on OVCAR-5 ovarian; 52.5 µM in the experiment with RXF 393 renal; 55.3 µM in the experiment on MCF7 breast; 28.4 µM in the experiment with KM12 colon. The results for the TGI in the experiment on CCRF-CEM leukemia and in the experiment with HOP-92 NSCLC were 29.2 µM and 38.5 µM, respectively.
On to `CCOC(=O)c1nc(-c2ccccc2)oc1OCC`, for which the TGI in the experiment with LOX IMVI melanoma, in the experiment on RXF 393 renal, in the experiment on KM12 colon, in the experiment with CCRF-CEM leukemia and with M14 melanoma was more than 100 µM in each case.
As for `CC12CC(OC(=O)[C@]1(C)O)[C@@H]([C@]1(O)CC[C@H]3[C@@H]4C[C@H]5O[C@]56[C@@H](O)C=CC(=O)[C@]6(C)[C@H]4CC[C@@]31C)C2` (stereo not given in full), the TGI with MDA-MB-231 breast was 16.7 µM; with LOX IMVI melanoma, 15.9 µM; in the experiment with OVCAR-5 ovarian, 25.2 µM; with RXF 393 renal it was 8.76 µM; with MCF7 breast it was 17.2 µM; with KM12 colon it was 28.7 µM. For the same compound, the TGI in the experiment with CCRF-CEM leukemia was determined as 7.16 µM; in the experiment with HOP-92 NSCLC, 8.08 µM; in the experiment on M14 melanoma, 24.9 µM.
In the case of `CC(C)C[C@H](NC(=O)[C@@H](O)[C@H](N)Cc1ccc([N+](=O)[O-])cc1)C(=O)O`, the GI50 is more than 25 µM with MDA-MB-231 breast; more than 25 µM with LOX IMVI melanoma; more than 25 µM in the experiment on OVCAR-5 ovarian; 19.2 µM in the experiment with RXF 393 renal; more than 25 µM with MCF7 breast; more than 25 µM with KM12 colon. In addition, the GI50 in the experiment with HOP-92 NSCLC and in the experiment with M14 melanoma was more than 25 µM each time. The TGI in the experiment on MDA-MB-231 breast, in the experiment on LOX IMVI melanoma, in the experiment with OVCAR-5 ovarian, in the experiment on RXF 393 renal, in the experiment on MCF7 breast and in the experiment with KM12 colon was more than 25 µM in each case. The TGI in the experiment with HOP-92 NSCLC and in the experiment with M14 melanoma was more than 25 µM in each case.
In the case of `Cc1ccc(Sc2ccc(C)cc2[N+](=O)[O-])c([N+](=O)[O-])c1`, the TGI with LOX IMVI melanoma, in the experiment with OVCAR-5 ovarian, with RXF 393 renal, in the experiment with KM12 colon, in the experiment with CCRF-CEM leukemia and with HOP-92 NSCLC was more than 100 µM each time. The compound also displayed a TGI with M14 melanoma of more than 100 µM.
For `CCOC(=O)C1=C(Nc2cccc3ccccc23)OC/C1=N\NC(=O)c1ccccc1O`, the TGI in the experiment on LOX IMVI melanoma was more than 72.5 µM; in the experiment with OVCAR-5 ovarian, more than 100 µM; in the experiment with RXF 393 renal, more than 37.5 µM; in the experiment with KM12 colon it was more than 100 µM; with CCRF-CEM leukemia, 37.1 µM; in the experiment on SR leukemia, 41.4 µM. For the same compound, the values for the TGI in the experiment on HOP-92 NSCLC and with M14 melanoma were 46.1 µM and more than 100 µM, respectively.
With `COc1cccc2nc3cc(C)c(C)cc3nc12`, the TGI in the experiment with LOX IMVI melanoma, with OVCAR-5 ovarian, in the experiment with RXF 393 renal, with KM12 colon, with CCRF-CEM leukemia and in the experiment on SR leukemia was more than 100 µM in each case. The TGI with HOP-92 NSCLC and in the experiment on M14 melanoma was more than 100 µM in each case.
With `COC(=O)C1=C(O)c2cc3c(cc2[C@H](c2cc(OC)c(OC)c(OC)c2)C1C(=O)OC)OCO3` (stereo not given in full), the TGI was more than 100 µM in the experiment on LOX IMVI melanoma; more than 100 µM in the experiment on OVCAR-5 ovarian; 73.4 µM with RXF 393 renal; more than 100 µM in the experiment with KM12 colon; more than 100 µM with CCRF-CEM leukemia; more than 100 µM in the experiment on SR leukemia. Also, the TGI with HOP-92 NSCLC and with M14 melanoma was more than 100 µM throughout.
On to `CC(C)C12C=CC(C)(CC1)n1c(=O)c3cc4ccccc4cc3c(=O)n12` (stereo not given), for which the TGI in the experiment with LOX IMVI melanoma, in the experiment with OVCAR-5 ovarian, in the experiment with RXF 393 renal, in the experiment on KM12 colon, in the experiment with CCRF-CEM leukemia and with SR leukemia was more than 100 µM throughout. Also, the TGI in the experiment with HOP-92 NSCLC and in the experiment with M14 melanoma was more than 100 µM throughout.
As to `COC(=O)C1=C(C(=O)OC)SC(=C(N=Nc2ccccc2)c2ccccc2)S1`, the TGI in the experiment with LOX IMVI melanoma, in the experiment with OVCAR-5 ovarian, in the experiment on KM12 colon, in the experiment with CCRF-CEM leukemia, with SR leukemia and in the experiment with HOP-92 NSCLC was more than 100 µM in each case. In addition, in the experiment on M14 melanoma, the TGI was more than 100 µM.
Take `COC(=O)c1cc(-c2cccn2C)c2c(c1C(=O)OC)c1ccccc1n2C`: the TGI in the experiment on LOX IMVI melanoma, in the experiment on RXF 393 renal, in the experiment on KM12 colon, with SR leukemia, in the experiment on HOP-92 NSCLC and in the experiment with M14 melanoma was more than 100 µM each time.
For the compound `O=C(Nc1nc(=S)c2c(ncn2CCO)[nH]1)c1ccccc1`, the TGI in the experiment on LOX IMVI melanoma, with OVCAR-5 ovarian, in the experiment with RXF 393 renal, in the experiment on KM12 colon, in the experiment with CCRF-CEM leukemia and with SR leukemia was more than 100 µM in each case. The TGI in the experiment on HOP-92 NSCLC and in the experiment with M14 melanoma was more than 100 µM throughout.
